According to patent US10532088B2, “Adoptive cellular therapy using an agonist of retinoic acid receptor-related orphan receptor gamma and related therapeutic methods” (Lycera Corporation, priority 2014, dated 2020):

Assays:
RORγ-LBD = biological target: T1, RORγ-LBD (Homo sapiens, UniProt P51449); assay: RORγ-Ligand Binding Domain (LBD) TR-FRET Assay; assay type: biochemical
T1 construct: HIS-tagged RORγ-LBD protein was expressed in SF9 cells using a baculovirus expression system; made in house; host or cells: SF9 insect cells, baculovirus; lysate used
T1 sequence (P51449 269-508 limits assumed): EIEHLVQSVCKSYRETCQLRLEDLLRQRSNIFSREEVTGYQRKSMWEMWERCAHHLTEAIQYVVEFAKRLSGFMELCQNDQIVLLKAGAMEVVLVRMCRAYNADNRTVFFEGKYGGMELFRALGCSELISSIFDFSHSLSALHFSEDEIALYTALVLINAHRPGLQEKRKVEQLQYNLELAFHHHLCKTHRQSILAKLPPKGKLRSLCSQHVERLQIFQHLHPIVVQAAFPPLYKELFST
Experimental: HIS-tagged RORγ-LBD protein was expressed in SF9 cells using a baculovirus expression system. The lysate was diluted in assay buffer (50 mM Tris pH 7.0, 50 mM KCl, 1 mM EDTA, 0.1 mM DTT, 0.01% BSA) to obtain RORγ-LBD final concentration of ˜3 nM in a 384-well assay plate (need to titrate for each batch of protein).
A stock of biotinylated-LXXLL peptide from coactivator SRC1 (Biotin-[…]) was prepared in assay buffer and added to each well (200 nM final concentration). […] RORγ antagonist ursolic acid was also included at a final concentration of 2 μM. Compounds were diluted in DMSO and further diluted in assay buffer with a final DMSO concentration at 1%.

Gal4-RORγ-LBD = biological target: T2, Gal4-RORγ-LBD (Homo sapiens, UniProt P51449); assay: Gal4-RORγ Luciferase Reporter Assay in HEK-293T Cells; assay type: cell-based
T2 construct: expressed in transfected cells
T2 sequence (P51449 269-508 limits assumed): T1 sequence (P51449 269-508 limits assumed)
Experimental: In the following protocol, HEK-293 cells were transfected with a construct comprising the Gal4 DNA binding domain fused to the ligand binding domain of RORγ (Gal4-RORγ-LBD) in a pcDNA3.1neo plasmid, and also with a reporter construct comprising pGL4.31 Gal4-luciferase (Promega). Control cells were prepared similarly using empty pcDNA3.1neo and pGL4.31 vectors.
Trans-IT reagent (Mirus, 60 μL) at room temperature was added drop wise to OptiMEM (Invitrogen, 1.5 ml). This reagent mixture was mixed by inversion then incubated for 5 to 30 minutes at room temperature. It then was added to a solution of both expression vectors (5 μg each), mixed, and incubated at room temperature for about 20 minutes. HEK-293 cells were harvested from incubation flasks by removing the media, treating with TrypLE Express (Invitrogen), and incubating until the cells detached from the bottom of the flask (approximately 2-5 minutes). […]
The cells were harvested as described above, counted, and centrifuged to obtain the desired number of cells, then re-suspended in complete growth media at 0.75×10^6 cells/mL. […] The luciferase intensity was read on an Envision plate reader (Perkin Elmer). […] The Max Response is the upper plateau in the signal as determined by line-fit using a 4-parameter logistic model in PRISM (GraphPad).

EG7 tumors = assay: Adoptive transfer of Tc17 cells treated ex vivo with RORγ agonist to mice bearing EG7 tumors; assay type: in vivo; details: Tc17 cells exposed ex vivo to compound at 10 μM; FIG. 1 Part A
Experimental: EG7 cells (EL4 cells with OVA expression) were grown in RPMI 1640 medium (Invitrogen)/10% heat-inactivated FBS (Hyclone), penicillin-streptomycin, and 50 mM β-mercaptoethanol (Invitrogen); harvested; washed with phosphate-buffered saline (PBS); and then implanted at 1×10^6 cells/mouse in PBS into the flank of mice subcutaneously. Implanted tumor cells grow into visible tumor in about one week. Mice are provided food and water ab libitum throughout the duration of the experiment.
Three to five days after tumor cell transplantation, Tc17 differentiation culture is set up. […]
When a tumor becomes visible, tumor volume is assessed by caliper measurement of the length and width and tumor volume is calculated (0.5×(length×(width)^2). When the tumor becomes visible in most mice (typically 7-10 days after implantation), mice are randomized by tumor volume (tumor volume is <500 mm^3) and divided into three groups. Differentiated Tc17 cells (with or without RORγ agonist) are counted, washed with phosphate buffered saline (PBS), and then the cells are injected into tumor-bearing mice at 5×10^6 cells/mouse intraperitoneally or intravenously using a PBS carrier to deliver the cells. […]
After T cell transfer, tumor volume was assessed every 2 to 3 days. In studies where survival is assessed, mice that are alive and have tumor volume smaller than 3000 mm^3 are considered survivors.

For `C[C@H]1CN(S(=O)(=O)c2cccc(C(F)(F)F)c2)c2cc(COc3c(F)cccc3Cl)ccc2O1` [Compound 1], which EC50 (RORγ-LBD; in presence of 2 μM RORγ antagonist ursolic acid) is on record?
The EC50 was less than 500 nM.

What about the “TR-FRET Assay Average Max Response” value (RORγ-LBD; upper plateau, signal in absence of ursolic acid or test compound set as 100) of the same compound?
Its value is “**** (a value greater than 200)”.

And the EC50 (Gal4-RORγ-LBD; HEK-293 cells, 2 μM ursolic acid)?
The EC50 was 500 to 5000 nM.

What about the “Gal4-RORγ Assay Average Max Response” value (Gal4-RORγ-LBD; upper plateau, luciferase signal in absence of ursolic acid or test compound defined at 100) of the same compound?
The value was “** (a value in the range of greater than 90 to 150)”.

What about the “change in tumor volume over time, p vs. DMSO treated Tc17 cells” value (EG7 tumors) of the same compound?
The value was less than 0.004.
